The values below come from patent publication US12600709B2, “Nonpeptide somatostatin type 5 receptor agonists and uses thereof” (Crinetics Pharmaceuticals, Inc., priority 2019, dated 2026).

Like-named read-outs stand apart in the source and are kept apart here.

Assay [1] addresses T1, human somatostatin receptor subtype 5 (Homo sapiens, UniProt P35346).
T1 construct: expressed in transfected cells
The assay is described as follows: cAMP assay for SST5R (inhibition of cAMP in CHO-K1 cells). Particulars: for EC50: inhibition of cAMP via human SST5 receptor, read-out: SST5 potency; for Fold selectivity for SST5 vs SST2: class symbols, SST5 receptor over SST2 receptor. The format is cell-based. Put shortly:
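CHO-K1 cells stably expressing human SSTR5 were treated 20 min at 37 °C with compounds plus 1.6 μM NKH477 in HBSS, 0.5 mM HEPES pH 7.4, 0.1% BSA, 0.2 mM IBMX. Lysate cAMP measured by HTRF against a standard curve; EC50 from cAMP-versus-concentration plots.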
For orientation: Cyclic AMP is a second messenger, typically raised through Gs and lowered through Gi signalling.

In assay [2] the target is T2, human somatostatin receptor subtype 2 (Homo sapiens, UniProt P30874).
T2 construct: expressed in transfected cells
T2 sequence (P30874 whole entry): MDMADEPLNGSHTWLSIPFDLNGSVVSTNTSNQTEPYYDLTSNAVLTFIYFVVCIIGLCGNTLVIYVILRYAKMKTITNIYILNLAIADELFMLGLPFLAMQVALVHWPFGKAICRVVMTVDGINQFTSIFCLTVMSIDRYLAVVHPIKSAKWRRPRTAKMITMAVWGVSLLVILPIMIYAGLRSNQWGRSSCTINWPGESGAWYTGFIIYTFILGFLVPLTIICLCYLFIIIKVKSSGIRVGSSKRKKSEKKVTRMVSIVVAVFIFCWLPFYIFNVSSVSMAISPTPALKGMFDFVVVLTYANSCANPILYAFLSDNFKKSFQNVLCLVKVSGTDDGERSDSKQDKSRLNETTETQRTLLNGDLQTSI
Description: cAMP assay for SST2R (inhibition of cAMP in CHO-K1 cells). The format is cell-based. Particulars: Table B; inhibition of cAMP via human SST2 receptor; read-out: SST2 potency. In short, it runs like this: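 CHO-K1 cells stably expressing human SSTR2, plated 4 days prior, treated 20 min at 37° C with 1.6 μM NKH477 plus compound dilutions in HBSS/HEPES pH 7.4/0.1% BSA/0.2 mM IBMX. Lysate cAMP measured by HTRF against standard curve; EC50 from concentration-response.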

T1 sequence (P35346 whole entry): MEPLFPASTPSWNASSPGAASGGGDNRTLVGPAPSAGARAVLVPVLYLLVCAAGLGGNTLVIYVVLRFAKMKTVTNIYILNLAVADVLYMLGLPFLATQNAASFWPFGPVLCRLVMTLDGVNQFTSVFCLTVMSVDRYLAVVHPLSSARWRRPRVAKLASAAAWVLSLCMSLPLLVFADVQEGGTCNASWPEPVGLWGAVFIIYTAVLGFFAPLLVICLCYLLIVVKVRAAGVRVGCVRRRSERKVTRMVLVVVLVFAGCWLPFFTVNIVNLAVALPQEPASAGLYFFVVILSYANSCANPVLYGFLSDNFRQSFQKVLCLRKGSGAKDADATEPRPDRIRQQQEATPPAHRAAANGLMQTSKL

As for `C[C@H](NC(=O)c1cnc(C#N)c(-c2cc(F)cc(F)c2)c1N1CC[C@](C)(N)C1)C1CC1` [1-77, 4-[(3S)-3-amino-3-methylpyrrolidin-1-yl]-6-cyano-N-[(1S)-1-cyclopropylethyl]-5-(3,5-difluorophenyl)pyridine-3-carboxamide], the EC50 in assay [1] (Table A) is below 10 nM; in assay [1] (Table B), below 10 nM; in assay [2], 10 to 100 nM. The “Fold selectivity for SST5 vs SST2” value in assay [1] (Table B) is on record as “+++ (+++=>500)”.

For the compound `C[C@]1(N)CCN(c2c(C(=O)NC3CCCC3)cnc(C#N)c2-c2cc(F)cc(F)c2)C1` [1-78, 4-[(3S)-3-amino-3-methylpyrrolidin-1-yl]-6-cyano-N-cyclopentyl-5-(3,5-difluorophenyl)pyridine-3-carboxamide], the values for the EC50 in assay [1] (Table A), in assay [1] (Table B) and in assay [2] were below 10 nM, below 10 nM and 10 to 100 nM, respectively. Moreover, the “Fold selectivity for SST5 vs SST2” value in assay [1] (Table B) is “+++ (+++=>500)”.

As for `C[C@]1(N)CCN(c2c(C(=O)NC3CC(F)(F)C3)cnc(C#N)c2-c2cc(F)cc(F)c2)C1` [1-79, 4-[(3S)-3-amino-3-methylpyrrolidin-1-yl]-6-cyano-N-(3,3-difluorocyclobutyl)-5-(3,5-difluorophenyl)pyridine-3-carboxamide], the EC50 in assay [1] (Table A) was below 10 nM; in assay [1] (Table B), below 10 nM; in assay [2], 100 to 1000 nM. Also, the “Fold selectivity for SST5 vs SST2” value in assay [1] (Table B) is recorded as “+++ (+++=>500)”.

For the compound `N#Cc1ncc(C(=O)NC2CCCCC2)c(N2CC[C@H](N)C2)c1-c1cc(F)cc(F)c1` [1-81, 4-[(3S)-3-aminopyrrolidin-1-yl]-6-cyano-N-cyclohexyl-5-(3,5-difluorophenyl)pyridine-3-carboxamide], the EC50 is below 10 nM in assay [1] (Table A), below 10 nM in assay [1] (Table B) and 100 to 1000 nM in assay [2]. For the same compound, the “Fold selectivity for SST5 vs SST2” value in assay [1] (Table B) is “+++ (+++=>500)”.

Regarding `CC(C)CNC(=O)c1cnc(C#N)c(-c2cc(F)cc(F)c2)c1N1CC[C@](C)(N)C1` [1-85, 4-[(3S)-3-amino-3-methylpyrrolidin-1-yl]-6-cyano-5-(3,5-difluorophenyl)-N-(2-methylpropyl)pyridine-3-carboxamide], the EC50 was below 10 nM in assay [1] (Table A), below 10 nM in assay [1] (Table B) and 100 to 1000 nM in assay [2]. The “Fold selectivity for SST5 vs SST2” value in assay [1] (Table B) is listed as “+++ (+++=>500)”.

With `C[C@]1(N)CCN(c2c(C(=O)NCC3CC3)cnc(C#N)c2-c2cc(F)cc(F)c2)C1` [1-86, 4-[(3S)-3-amino-3-methylpyrrolidin-1-yl]-6-cyano-N-(cyclopropylmethyl)-5-(3,5-difluorophenyl)pyridine-3-carboxamide], the values for the EC50 in assay [1] (Table A), in assay [1] (Table B) and in assay [2] were below 10 nM, below 10 nM and 100 to 1000 nM, respectively. Besides, the “Fold selectivity for SST5 vs SST2” value in assay [1] (Table B) is recorded as “+++ (+++=>500)”.

Consider `C[C@]1(N)CCN(c2c(C(=O)NC3CCC3)cnc(C#N)c2-c2cc(F)cc(F)c2)C1` [1-87, 4-[(3S)-3-amino-3-methylpyrrolidin-1-yl]-6-cyano-N-cyclobutyl-5-(3,5-difluorophenyl)pyridine-3-carboxamide], for which the EC50 is below 10 nM in assay [1] (Table A), below 10 nM in assay [1] (Table B) and 100 to 1000 nM in assay [2]. The “Fold selectivity for SST5 vs SST2” value in assay [1] (Table B) is “+++ (+++=>500)”.

With `N#Cc1ncc(C(=O)NC23CC(C2)C3)c(N2CC[C@H](N)C2)c1-c1cc(F)cc(Cl)c1` [1-90, 4-[(3S)-3-aminopyrrolidin-1-yl]-N-{bicyclo[1.1.1]pentan-1-yl}-5-(3-chloro-5-fluorophenyl)-6-cyanopyridine-3-carboxamide], the EC50 is below 10 nM in assay [1] (Table A), below 10 nM in assay [1] (Table B) and 100 to 1000 nM in assay [2]. The “Fold selectivity for SST5 vs SST2” value in assay [1] (Table B) is reported as “+++ (+++=>500)”.

On to `CC(C)NC(=O)c1cnc(C#N)c(-c2cc(F)cc(F)c2)c1N1CC[C@](C)(N)C1` [1-91, 4-[(3S)-3-amino-3-methylpyrrolidin-1-yl]-6-cyano-5-(3,5-difluorophenyl)-N-(propan-2-yl)pyridine-3-carboxamide], for which the EC50 in assay [1] (Table A) is below 10 nM; in assay [1] (Table B), below 10 nM; in assay [2] it was 100 to 1000 nM. Also, the “Fold selectivity for SST5 vs SST2” value in assay [1] (Table B) is listed as “+++ (+++=>500)”.

For the compound `C[C@]1(N)CCN(c2c(C(=O)NCC(F)(F)F)cnc(C#N)c2-c2cc(F)cc(F)c2)C1` [1-92, 4-[(3S)-3-amino-3-methylpyrrolidin-1-yl]-6-cyano-5-(3,5-difluorophenyl)-N-(2,2,2-trifluoroethyl)pyridine-3-carboxamide], the EC50 was below 10 nM in assay [1] (Table A), below 10 nM in assay [1] (Table B) and 100 to 1000 nM in assay [2]. For the same compound, the “Fold selectivity for SST5 vs SST2” value in assay [1] (Table B) is on record as “+++ (+++=>500)”.

Take `C[C@]1(N)CCN(c2c(C(=O)NC3CCCCC3)cnc(C#N)c2-c2cc(F)cc(F)c2)C1` [1-93, 4-[(3S)-3-amino-3-methylpyrrolidin-1-yl]-6-cyano-N-cyclohexyl-5-(3,5-difluorophenyl)pyridine-3-carboxamide]: the EC50 in assay [1] (Table A) was below 10 nM; in assay [1] (Table B), below 10 nM; in assay [2] it was 10 to 100 nM. Also, in assay [1] (Table B), the “Fold selectivity for SST5 vs SST2” value is recorded as “+++ (+++=>500)”.

On to `COc1cc(C#N)cc(-c2cncc(C(=O)NC34CC(C3)C4)c2N2CC[C@](C)(N)C2)c1` [1-94, 4-[(3S)-3-amino-3-methylpyrrolidin-1-yl]-N-{bicyclo[1.1.1]pentan-1-yl}-5-(3-cyano-5-methoxyphenyl)pyridine-3-carboxamide], for which the EC50 in assay [1] (Table A) was below 10 nM; in assay [1] (Table B) it was below 10 nM; in assay [2], 100 to 1000 nM. Besides, the “Fold selectivity for SST5 vs SST2” value in assay [1] (Table B) is given as “++ (++=100 to 499)”.

`COc1cc(C#N)cc(-c2cncc(C(=O)N[C@@H](C)C3CC3)c2N2CC[C@](C)(N)C2)c1` [1-96, 4-[(3S)-3-amino-3-methylpyrrolidin-1-yl]-5-(3-cyano-5-methoxyphenyl)-N-[(1S)-1-cyclopropylethyl]pyridine-3-carboxamide]: the EC50 is below 10 nM in assay [1] (Table A), below 10 nM in assay [1] (Table B) and 100 to 1000 nM in assay [2]. Also, the “Fold selectivity for SST5 vs SST2” value in assay [1] (Table B) is listed as “++ (++=100 to 499)”.

With `N#Cc1ncc(C(=O)NC23CC(C2)C3)c(N2CC[C@@](N)(CO)C2)c1-c1cc(F)cc(F)c1` [1-98, 4-[(3S)-3-amino-3-(hydroxymethyl)pyrrolidin-1-yl]-N-{bicyclo[1.1.1]pentan-1-yl}-6-cyano-5-(3,5-difluorophenyl)pyridine-3-carboxamide], the EC50 in assay [1] (Table A) was below 10 nM; in assay [1] (Table B) it was below 10 nM; in assay [2] it was 100 to 1000 nM. In addition, the “Fold selectivity for SST5 vs SST2” value in assay [1] (Table B) was “++ (++=100 to 499)”.

As for `CC(N)C1CN(c2c(C(=O)NC34CC(C3)C4)cnc(C#N)c2-c2cc(F)cc(F)c2)C1` (stereo not shown) [1-100, 4-[3-(1-aminoethyl)azetidin-1-yl]-N-{bicyclo[1.1.1]pentan-1-yl}-6-cyano-5-(3,5-difluorophenyl)pyridine-3-carboxamide], the EC50 is below 10 nM in assay [1] (Table A), below 10 nM in assay [1] (Table B) and above 1000 nM in assay [2]. Moreover, the “Fold selectivity for SST5 vs SST2” value in assay [1] (Table B) is given as “+++ (+++=>500)”.

On to `N#Cc1ncc(C(=O)NC23CC(C2)C3)c(N2C[C@@H](N)[C@H](F)C2)c1-c1cc(F)cc(F)c1` [1-101, 4-[(3R,4R)-3-amino-4-fluoropyrrolidin-1-yl]-N-{bicyclo[1.1.1]pentan-1-yl}-6-cyano-5-(3,5-difluorophenyl)pyridine-3-carboxamide], for which the values for the EC50 in assay [1] (Table A), in assay [1] (Table B) and in assay [2] were below 10 nM, below 10 nM and above 1000 nM, respectively. In assay [1] (Table B), the “Fold selectivity for SST5 vs SST2” value is “+++ (+++=>500)”.
